Test results published in patent publication US20200253929A1, “TREATMENT OF EPILEPSY” (priority 2017, published 2020).

Columns and labels:
[1] = target: T1, CYP3A4 (Homo sapiens, UniProt P08684); experiment: CYP450 enzyme inhibition assay, CYP3A4; type: in vitro ADME; conditions: human liver microsomes; for IC50: testosterone probe
T1 construct: containing Human Liver Microsomes (HLM) (0.5 mg/mL); from tissue; host or cells: human liver microsomes
Description: (§1) Protocol was based on literature [Perez-Del Palacio et al. (2017) Front Pharmacol 8, 202]. Assessment of CYP450 inhibition was conducted in 96-well plate format at 37° C. Test compounds were dissolved in DMSO/acetonitrile (2 μL) and diluted in 98 μL NADPH solution (2 mM). Reactions were started by addition of 100 μL potassium phosphate buffer (200 mM, pH 7.4) containing Human Liver Microsomes (HLM) (0.5 mg/mL). Probe reactions for CYP3A4, CYP2D6 and CYP2C9 were conducted with 50 μM testosterone, 22 μM dextromethorphan and 10 μM diclofenac for 15 min. Reactions were terminated with the addition of a quench solution (90 μL) of acetonitrile containing internal standards for LC-MS/MS determination (60 ppb cortisone, 100 ppb 4′-hydroxydiclofenac 13C6, 60 ppb levallorphan).

[2] = test system: SHSY5Y cells; experiment: Cell viability MTT assay, SHSY5Y cells; type: cell-based, human; conditions: 24 h incubation; for IC50: read-out: Cytotoxicity SHSY5Y cells IC50
Description: Protocol was based on literature [Patel and Patel. (2011) J. App. Pharm. Sci 1, 167-171]. Three cell lines were used: a) Hep G2 (HB-8065), a well-differentiated human hepatocellular carcinoma cell line, b) THLE-2, human liver epithelial cells transformed with SV40 large T-antigen and c) SHSYSY, a thrice-cloned sub-line of a human metastatic bone tumor. Cells were seeded at a concentration of 1×10^4 cells/well in 200 μL culture medium and incubated at 37° C. in 5% CO2 using 96-well plates for 24 h. Next, the medium was replaced with medium complemented with test compounds. After another 24 h incubation, the medium was replaced by 100 μL of a MTT (3-(4,5-dimethylthiazol-2-yl)-2,5-diphenyltetrazolium bromide) solution (5 mg/mL in PBS and diluted at 0.5 mg/mL in MEM without phenol red). The plates were gently shaken and incubated for 3 hours at 37° C. in a 5% CO2 incubator. The supernatant was removed and 100 μL of 100% DMSO was added. The plates were gently shaken to solubilize the formed formazan. The absorbance was measured using a multireader (Victor2 (Wallac)) at a wavelength of 570 nm.

[3] = Kinetic solubility assay; type: physicochemical; conditions: for Kinetic solubility: 2 h incubation, absorbance 620 nm
Description: Protocol was based on literature [Perez et al. (2015) J Biomol Screen 20, 254-264]. The kinetic solubility assay was conducted in 96-well, flat-bottom, transparent polystyrene plates (Costar 9018, Corning, Tewksbury, Mass.). Six two-fold serial dilutions of an initial 10 mM test compound solution were prepared in DMSO. After a 2 h incubation period (to avoid missing slow precipitation) absorbance was measured at 620 nm by an EnVision multilabel plate reader. The kinetic solubility was estimated from the concentration of test compound that produced an increase in absorbance above the background levels (i.e. 1% DMSO in buffer).

[4] = target: T2, CYP2D6 (Homo sapiens, UniProt P10635); experiment: CYP450 enzyme inhibition assay, CYP2D6; type: in vitro ADME; conditions: human liver microsomes; for IC50: dextromethorphan probe
T2 construct: containing Human Liver Microsomes (HLM) (0.5 mg/mL); from tissue; host or cells: human liver microsomes
Description: as §1

[5] = Metabolic stability assay (hepatic clearance); type: in vitro ADME; conditions: human liver microsomes; for Hepatic clearance / Hepatic clearance t1/2 (half-life): 1 μM
Description: The assay was performed with a mixture of test compounds (1 μM), NADPH (4 mM) and Human Liver Microsomes (HLM) (1 mg/mL) incubated at 37° C. Reactions were quenched at 0, 15, 30, 45, 60, and 90 min, using an equal volume of acetonitrile and then diluted 1:1 with water prior to analysis by LC-MS/MS. The analysis was performed using an Agilent Series 1290 LC system (Agilent Technologies, Santa Clara, Calif., USA) using a Supelco Discovery HS C18 (2.1×50 mm) 3 µm column that was held at 30° C. Solvent A contained water with 0.1% formic acid and solvent B contained acetonitrile with 0.1% formic acid, and the flow rate was set at 400 μL/min. The gradient elution was performed as follows: 0-0.5 min 0% eluent B; 0.5-7 min 100% eluent B; 7-9 min 100% eluent B; 9-9.2 min 0% eluent B; and 9.2-10.5 min 0% eluent B. An API 4000 mass spectrometer in positive ESI mode (AB SCIEX, Concord, ON, Canada) was used with a generic method for data acquisition on all compounds. Data processing was performed using MultiQuant Software (AB SCIEX, Concord, ON, Canada) to process the data. Peak areas were used to plot the Ln % remaining relative to time (t)=0. The slope of the natural log of the percent remaining versus time was calculated to determine the first-order rate constant (k) and the half-life (t1/2) of the test compounds according to the following equation: t1/2=0.693/k (min)

[6] = Parallel artificial membrane permeability assay (PAMPA); type: in vitro ADME; conditions: for Permeability: 10 μM, 5 h, RT
Description: The Gentest Pre-coated PAMPA Plate System (Corning) was used to perform the permeability assays. The 96 well filter plate, pre-coated with lipids, was used as the permeation acceptor and a matching 96 well receiver plate was used as the permeation donor. Compound solutions were prepared by diluting 10 mM DMSO stock solutions in PBS with a final concentration at 10 μM. The compound solutions were added to the wells (300 μL/well) of the receiver plate and PBS was added to the wells (200 μL/well) of the pre-coated filter plate. The filter plate was then coupled with the receiver plate and the plate assembly was incubated at RT without agitation for 5 h. Next, the plates were separated and 50 μL solution from each well of both the filter plate and the receiver plate was transferred to a vial with 150 μL acetonitrile and centrifuged at 13300 rpm for 10 min at 4° C. The supernatant was diluted in a solution water/acetonitrile (50/50). The final concentration of compounds in both donor wells and acceptor wells was analyzed by LC-MS/MS. Permeability of the compounds was calculated using the following equation:
Permeability (cm/s): Pe={−ln[1−CA(t)/Ceq]}/[A*(1/VD+1/VA)*t]}
A=filter area (0.3 cm2), VD=donor well volume (0.3 mL), VA=acceptor well volume (0.2 mL), t=incubation time (s), CA(t)=compound concentration in acceptor well at time t, CD(t)=compound concentration in donor well at time t, and Ceq=[CD(t)*VD+CA(t)*VA]/(VD+VA)]

T1 sequence (P08684 whole entry): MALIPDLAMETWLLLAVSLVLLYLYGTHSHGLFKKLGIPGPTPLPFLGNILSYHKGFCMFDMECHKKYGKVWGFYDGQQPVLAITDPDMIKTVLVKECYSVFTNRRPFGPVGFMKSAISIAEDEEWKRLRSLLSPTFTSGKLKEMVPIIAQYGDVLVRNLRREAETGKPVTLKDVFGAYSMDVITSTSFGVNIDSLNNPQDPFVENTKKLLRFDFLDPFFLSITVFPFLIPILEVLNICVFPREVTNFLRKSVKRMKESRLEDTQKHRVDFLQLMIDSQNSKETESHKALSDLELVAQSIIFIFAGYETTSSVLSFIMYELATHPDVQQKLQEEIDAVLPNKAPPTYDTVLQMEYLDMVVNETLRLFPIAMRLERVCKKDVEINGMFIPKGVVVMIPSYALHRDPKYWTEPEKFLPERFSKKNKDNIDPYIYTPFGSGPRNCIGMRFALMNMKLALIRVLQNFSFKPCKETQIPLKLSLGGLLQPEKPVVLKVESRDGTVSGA
T2 sequence (P10635 whole entry): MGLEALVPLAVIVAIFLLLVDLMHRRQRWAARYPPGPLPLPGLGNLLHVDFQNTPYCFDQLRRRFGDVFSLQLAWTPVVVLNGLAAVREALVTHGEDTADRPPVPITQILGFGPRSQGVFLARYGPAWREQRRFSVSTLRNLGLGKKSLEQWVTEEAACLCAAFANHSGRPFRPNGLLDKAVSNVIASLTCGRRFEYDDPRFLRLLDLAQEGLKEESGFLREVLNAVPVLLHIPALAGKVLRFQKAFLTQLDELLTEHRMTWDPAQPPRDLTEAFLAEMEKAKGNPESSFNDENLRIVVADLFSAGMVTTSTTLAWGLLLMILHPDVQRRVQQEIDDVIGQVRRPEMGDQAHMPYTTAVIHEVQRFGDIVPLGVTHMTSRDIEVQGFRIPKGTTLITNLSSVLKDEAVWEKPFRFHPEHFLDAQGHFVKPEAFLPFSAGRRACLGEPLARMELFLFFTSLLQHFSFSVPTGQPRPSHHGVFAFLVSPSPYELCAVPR

| SMILES | CYP3A4, effect [1] | IC50 [1] [µM] | Cytotoxicity SHSY5Y cells, effect [2] | IC50 [2] [µM] | Kinetic solubility, rating [3] | Kinetic solubility [3] [µM] | CYP2D6, effect [4] | IC50 [4] [µM] | Hepatic clearance, rating [5] | Hepatic clearance [5] [μL/ μL/min/mg protein] | Hepatic clearance t1/2 (half-life) [5] [min] | Hepatic clearance t1/2 (half-life) ([5]; listed as Azaspirofuran A) [min] | Permeability, rating [6] | Permeability [6] [×10⁻⁶ cm/s] | Hepatic clearance t1/2 (half-life) ([5]; listed as Pseurotin A2) [min] |
| --- | --- | --- | --- | --- | --- | --- | --- | --- | --- | --- | --- | --- | --- | --- | --- |
| CCc1ccc(C2=C(C)C(=O)C3(O2)C(=O)NC(OC)(C(=O)c2ccccc2)C3O)o1 (stereo not shown) [azaspirofuran A] | No effect | > 88 | Weak | > 50 | Acceptable | >100 | Weak | 23.4 | Medium | 20.17 | 33 | 33.12 | High | 18.64 | – |
| CC/C=C\[C@H](O)[C@H](O)C1=C(C)C(=O)[C@]2(O1)C(=O)N[C@](OC)(C(=O)c1ccccc1)[C@H]2O [pseurotin A2] | No effect | > 88 | Decrease | 17.9 | Acceptable | >100 | No effect | > 88 | Low | <8.6 | > 60 | – | Low | 0.05 | > 60 |
